One compound from patent US20220033406A1, “C[…] AS ANTI-VIRALS” (priority 2018, published 2022) can be followed below.

A word on the IC50: it is the concentration that inhibits the measured activity by half.

In test [1] the target is T1, Recombinant full-length HIV-1 Reverse Transcriptase (HIVrt) (Human immunodeficiency virus type 1 group M subtype B, UniProt P04585).
T1 construct: Recombinant full-length HIV-1 Reverse Transcriptase (HIVrt); purchased Abcam ab63979
In words: Inhibition of HIV reverse transcriptase (RdDp assay). It is filed as biochemical. Particulars: 1 nM HIVrt, 30° C., 40 min, 3H-TTP incorporation; Table 3 triphosphates. The protocol: Recombinant full-length HIV-1 Reverse Transcriptase (HIVrt) was purchased from Abcam, catalog #ab63979. The last 385 nucleotide region of the HCV anti-genome complementary to the 5′ untranslated region (c5′UTR) was synthesized using T7 RNA polymerase Megascript kit from Ambion (Cat #AM1333). A DNA oligo served as an internal initiation primer and was purchased from IDT. Unless otherwise specified, reaction samples consisted of 20 nM c5′UTR RNA, 100 nM DNA primer, and 1 nM HIVrt, mixed together in a buffer containing 50 mM Tris pH 7.5, 100 mM KCl, 4 mM dithiothreitol (DTT), and 12.5 mM MgCl2. Reactions were initiated at 30° C. by adding 0.1 μM adenosine triphosphate (dATP), 0.1 μM cytosine triphosphate (dCTP), 1 μM guanosine triphosphate (dGTP), and 0.32 μM ^3H-thymidine triphosphate (^3H-TTP), in a final volume of 50 μL. After 40-mins incubation, the reaction was terminated by adding 60 μL of chilled 20% (w/v) trichloroacetic acid with 500 μM ATP to precipitate nucleic acids. After incubation at 4° C. for 1 h, the sample underwent filtration on a multiscreen BV […] 96-well plate (Millipore). 40 μL Microscint-20 (Perkin Elmer) was added to the well and the counts in the sample were determined by a Trilux Microbeta microplate scintillation reader (Wallac).
All data were analyzed with GraphPad Prism. The compound concentration at which the enzyme-catalyzed rate was reduced by 50% (IC50) was calculated by fitting the data to the equation Y=% Min+(% Max−% Min)/(1+X/IC50), where Y corresponds to the percent relative enzyme activity, % Min is the residual relative activity at saturating compound concentration, % Max is the relative maximum enzyme activity, and X corresponds to the compound concentration. The Ki was calculated using the Cheng-Prusoff equation assuming competitive inhibition relative to natural dNTP incorporation: K=IC50/(1+[dNTP]/Km), where [dNTP] is the concentration of natural dNTP and Km is the apparent Km for dNTP. The standard HIVrt RNA-dependent DNA polymerization (RdDp) assay was used to determine the IC50 values.

Test [2] has as its target T2, Recombinant full-length HBV polymerase (HBVpol) (Hepatitis B virus genotype D subtype ayw, UniProt P03156).
T2 construct: Recombinant full-length HBV polymerase(HBVpol) was expressed in SF9 cells; made in house; host or cells: SF9 insect cells
Put plainly: Inhibition of HBV polymerase (RdDp assay). The conditions noted are these: HBVpol expressed in SF9 cells, 30° C., 120 min, 3H-TTP incorporation; Table 3 triphosphates; read-out: HBVrt IC50. It is filed as biochemical.

T2 sequence (P03156 whole entry): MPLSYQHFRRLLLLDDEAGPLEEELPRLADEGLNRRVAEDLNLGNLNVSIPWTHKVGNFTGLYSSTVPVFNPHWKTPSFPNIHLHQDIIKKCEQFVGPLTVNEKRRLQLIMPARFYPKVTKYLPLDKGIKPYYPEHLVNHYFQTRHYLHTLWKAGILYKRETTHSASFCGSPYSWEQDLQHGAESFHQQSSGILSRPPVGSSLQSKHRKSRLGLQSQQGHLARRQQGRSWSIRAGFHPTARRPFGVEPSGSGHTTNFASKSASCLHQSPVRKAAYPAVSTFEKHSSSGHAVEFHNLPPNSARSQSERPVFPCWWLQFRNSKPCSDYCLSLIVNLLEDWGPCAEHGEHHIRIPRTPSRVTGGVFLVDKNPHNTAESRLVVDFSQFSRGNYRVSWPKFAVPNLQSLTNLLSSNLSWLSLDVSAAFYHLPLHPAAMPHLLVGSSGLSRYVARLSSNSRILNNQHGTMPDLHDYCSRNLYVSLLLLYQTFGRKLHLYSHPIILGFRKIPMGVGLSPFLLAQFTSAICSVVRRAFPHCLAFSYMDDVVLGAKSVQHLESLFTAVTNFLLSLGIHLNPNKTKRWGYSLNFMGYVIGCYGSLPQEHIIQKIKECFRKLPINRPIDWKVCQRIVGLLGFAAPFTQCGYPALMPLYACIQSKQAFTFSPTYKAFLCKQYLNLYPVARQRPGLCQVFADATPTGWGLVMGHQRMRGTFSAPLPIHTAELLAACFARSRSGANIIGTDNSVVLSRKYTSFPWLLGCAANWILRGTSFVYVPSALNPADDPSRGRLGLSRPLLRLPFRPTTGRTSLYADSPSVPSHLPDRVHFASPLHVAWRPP

Regarding `C=C1[C@@H](n2ccc(N)nc2=O)C[C@H](O)[C@@]1(CF)COP(=O)(O)OP(=O)(O)OP(=O)(O)O` [Example 29, ((1S,3S,5S)-3-(4-Amino-2-oxopyrimidin-1(2H)-yl)-1-(fluoromethyl)-5-hydroxy-2-methylenecyclopentyl)methyl Tetrahydrogen Triphosphate], the IC50 was 326 nM in test [1] and 380 nM in test [2].
